According to patent US20170008928A1, “NOVEL PEPTIDES AND PEPTIDE DERIVATIVES AND USES THEREOF” (Novo Nordisk A/S, priority 2015, published 2017):
Read-outs that look alike come from different tables or passages of the source. Starred links: 1 amine or outer side, 2 acyl side, 3 side chain; linkers in the order of their positions; H or OH if unused. Non-standard residues stand in square brackets, D forms with d. Residues, ends and D or L forms follow the SMILES beside them. *: point of attachment. Phe(4-CH2SO3H) = N[C@@H](Cc1ccc(CS(=O)(=O)O)cc1)C(=O)O; sY = N[C@@H](Cc1ccc(OS(=O)(=O)O)cc1)C(=O)O; C18 diacid = O=C(O)CCCCCCCCCCCCCCCCC(=O)*; γGlu = O=C(O)[C@H](CCC(=O)[*:2])N[*:1]; 2Nal = N[C@@H](Cc1ccc2ccccc2c1)C(=O)O; NMeF = CN[C@@H](Cc1ccccc1)C(=O)O; dNMeD = CN[C@H](CC(=O)O)C(=O)O; Nle = CCCC[C@H](N)C(=O)O; AEEA = NCCOCCOCC(=O)O

How the values were obtained:
[1] = target: T1, human cholecystokinin-2 receptor (CCK-2R) (Homo sapiens, UniProt P32239); test: In vitro receptor binding to CCK-2R, SPA displacement of [125I]-CCK-8s from plasma membranes
T1 construct: host or cells: 1321-N1 cells (plasma membranes prepared by Evotec AG Hamburg)
T1 sequence (P32239 1-447): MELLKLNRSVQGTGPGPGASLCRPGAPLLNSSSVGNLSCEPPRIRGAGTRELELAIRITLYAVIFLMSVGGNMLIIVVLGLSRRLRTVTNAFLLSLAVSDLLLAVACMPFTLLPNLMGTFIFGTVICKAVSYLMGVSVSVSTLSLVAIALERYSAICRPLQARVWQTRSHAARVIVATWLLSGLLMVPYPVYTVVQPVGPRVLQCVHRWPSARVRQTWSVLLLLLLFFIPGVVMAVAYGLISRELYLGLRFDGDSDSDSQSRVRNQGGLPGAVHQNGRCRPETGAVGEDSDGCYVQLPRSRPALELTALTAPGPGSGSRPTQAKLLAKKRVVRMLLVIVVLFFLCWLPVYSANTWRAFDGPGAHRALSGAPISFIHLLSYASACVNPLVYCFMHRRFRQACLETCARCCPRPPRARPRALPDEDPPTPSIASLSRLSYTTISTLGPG
Description: (§1) The in vitro binding affinity is a measure of the strength of attraction between a receptor and its ligand.
(§2) Displacement of radio ligand was measured as reduction in light emission from SPA beads.
(§3) The cells used in these assays were 1321-N1 cells stably expressing the CCK-1R or the CCK-2R (Perkin Elmer product numbers ES-530-A and ES-531-A, respectively see www.perkinelmer.com/Catalog/Product/ID/ES-530-A or -ES-531-A, respectively).
(§4) The cells were cultured in an incubator (95% RH (relative humidity), 5% (of standard atmospheric pressure) CO2, 37° C.) in cell culture medium (DMEM (Lonza catalogue BE-12-604F/U1), with 10% (v/v) Foetal Calf Serum (FCS, Gibco catalogue 16140-071), 1% (w/w) Sodium pyruvate (Gibco catalogue 11360-039), 500 μg/ml Geneticin® (G418) (Gibco catalogue 10131-027), 25 μg/ml Zeocin™ (Invitrogen catalogue R250-05), 1% (w/w) Pen/Strep (Gibco catalogue 15140-122)).
(§5) Plasma membranes were prepared by Evotec AG Hamburg by use of the ParrBomb (#4635, Parr Instrument Company). Cells were lysed with a lysis buffer (50 mM Tris, 2.5 mM EDTA, pH7) with added protease inhibitors (Complete Proteaseinhibitors EDTA-free (#05056489001, Roche), 1 tablet per 50 mL lysis buffer). The membrane fraction was separated by centrifugation. First, the cell lysate was centrifuged at 1000×g for 10 minutes at 4° C. The pellet was discarded and the supernatant was then centrifuged at 100.000×g for 30 minutes at 4° C. The supernatant was discarded and the pellet was re-suspended in 1 ml/5×10^8 cells ice cold membrane buffer (50 mM Tris, 320 mM Sucrose and Complete Proteaseinhibitors EDTA-free (#05056489001, Roche); pH7.4) and homogenised with dounce homogeniser. The protein concentration was determined using the Pierce™ BCA Protein Assay Kit according to kit manual, and the membrane preparation was adjust to the desired protein concentration with membrane buffer and aliquoted into pre-cooled tubes, snap-frozen in liquid nitrogen, and stored at −80° C.
(§6) CCK receptor binding assays were performed in 96-well Optiplates (Cat #6005290, PerkinElmer, Waltham, Mass., USA) in a total volume of 200 μl per well. CCK derivatives in 80% DMSO stock solutions of 800 μM were serially diluted […] in assay buffer (50 mM Tris/HCl, 4.5 mM MgCl2, […], 0.02% Tween 20, 0.25% ovalbumin, 0.1% pluronic F-68, pH 7.4) to final assay concentrations ranging from 10^−5 M (ten μM) to 10^−12 M (one pM).
(§7) Fifty μl of reference or test compounds were added to the Optiplates (using technical duplicates, i.e. two wells of each sample, one data point being the average of two wells), followed by addition of 150 μl of the mixture of SPA bead, radio ligand, and plasma membrane. The plates were sealed and incubated in the dark at +22° C. for 2 hours on a IKA MTS plate shaker (IKA-Werke D-79219 Staufen) set at 300 rpm and thereafter centrifuged at 1500 rpm for 10 minutes in a Heraeus Multifuge 3s centrifuge. SPA bead light emission was measured in a TopCount NXT (PerkinElmer) for 2 min/well after a delay of 60 min.
(§8) As a measure of compound affinity, calculations were performed in order to determine the half maximal inhibitory concentration (the IC50 value).
(§9) The data from the TopCounter were given as counts per minute (CPM). The CPM was plotted as a function of the concentration of compound. Dose-response curves were obtained, and IC50 values were calculated, by a nonlinear three-parameter logistic equation (log(agonist) vs response) with hillslope=−1, and shared top and bottom using the software programme GraphPad Prism v 6.0 (Graph Pad software, La Jolla, Calif., USA). The highest dose tested was 10^−5 M (1×10^7 pM).
(§10) The preference of a specific compound for the CCK-1 receptor, or the CCK-1R selectivity, may be defined as IC50 (CCK-2R)/IC50 (CCK-1R).
(§11) A minimum of three biological replicates was measured for each test compound on separate assay plates.

[2] = target: T2, human cholecystokinin-1 receptor (CCK-1R) (Homo sapiens, UniProt P32238); test: In vitro receptor binding to CCK-1R, SPA displacement of [125I]-CCK-8s from plasma membranes
T2 construct: host or cells: 1321-N1 cells
T2 sequence (P32238 1-428): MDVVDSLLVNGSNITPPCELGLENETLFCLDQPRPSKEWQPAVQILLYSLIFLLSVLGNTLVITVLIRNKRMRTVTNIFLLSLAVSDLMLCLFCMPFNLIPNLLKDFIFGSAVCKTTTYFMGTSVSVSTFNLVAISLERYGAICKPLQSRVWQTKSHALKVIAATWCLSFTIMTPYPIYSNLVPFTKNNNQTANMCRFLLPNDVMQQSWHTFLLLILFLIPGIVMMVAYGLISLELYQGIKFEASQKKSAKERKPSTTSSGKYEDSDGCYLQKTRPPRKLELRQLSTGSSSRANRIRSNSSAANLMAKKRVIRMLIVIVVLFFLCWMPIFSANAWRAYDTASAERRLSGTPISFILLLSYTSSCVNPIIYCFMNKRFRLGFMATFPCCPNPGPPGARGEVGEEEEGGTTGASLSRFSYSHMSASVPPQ
Description: as §1, §2, §3, §4, §5, §6, §7, §8, §9, §10, §11

[3] = target: T1, human cholecystokinin-2 receptor (CCK-2R); test: In vitro potency on CCK-2R, whole cell functional assay (IP1 accumulation, IP-One HTRF); format: cell-based
[4] = displacement of [125I]-CCK-8s, plasma membranes of 1321-N1 cells expressing CCK-2R, highest dose tested 1×10^7 pM, read-out: IC50 (CCK-2R)
[5] = displacement of [125I]-CCK-8s, plasma membranes of 1321-N1 cells expressing CCK-1R, read-out: IC50 (CCK-1R)

Row | Structure (SMILES) | IC50 [1, 4] | IC50 [2, 5] | IC50 [1] | IC50 [2] | further results
1 | CC[C@H](C)[C@H](NC(=O)[C@H](Cc1c[nH]c2ccccc12)NC(=O)CNC(=O)[C@H](CC(C)C)NC(=O)[C@H](Cc1ccc(OS(=O)(=O)O)cc1)NC(=O)[C@H](CC(=O)O)NC(=O)COCCOCCNC(=O)COCCOCCNC(=O)CC[C@H](NC(=O)CCCCCCCCCCCCCCCCC(=O)O)C(=O)O)C(=O)N(C)[C@H](CC(=O)O)C(=O)N(C)[C@@H](Cc1ccccc1)C(N)=O [Example 10, 2-[2-[2-[[2-[2-[2-[[(4S)-4-Carboxy-4-(17-carboxyheptadecanoylamino)butanoyl]amino]ethoxy]ethoxy]acetyl]amino]ethoxy]ethoxy]acetyl-Asp-sTyr-Leu-Gly-Trp-Ile-DMeAsp-MePhe-amide] ({C18 diacid-γGlu-AEEA-AEEA}-D[sY]LGWI[dNMeD][NMeF]-NH2) | – | – | 2300 nM | 0.1 nM | –
2 | CC(C)C[C@H](NC(=O)[C@H](Cc1ccc(OS(=O)(=O)O)cc1)NC(=O)[C@H](CC(=O)O)NC(=O)COCCOCCNC(=O)COCCOCCNC(=O)CC[C@H](NC(=O)CCCCCCCCCCCCCCCCC(=O)O)C(=O)O)C(=O)NCC(=O)N[C@@H](Cc1c[nH]c2ccccc12)C(=O)N[C@@H](CCC(N)=O)C(=O)N(C)[C@H](CC(=O)O)C(=O)N(C)[C@@H](Cc1ccccc1)C(N)=O [Example 11, 2-[2-[2-[[2-[2-[2-[[(4S)-4-Carboxy-4-(17-carboxyheptadecanoylamino)butanoyl]amino]ethoxy]ethoxy]acetyl]amino]ethoxy]ethoxy]acetyl-Asp-sTyr-Leu-Gly-Trp-Gln-DMeAsp-MePhe-amide] ({C18 diacid-γGlu-AEEA-AEEA}-D[sY]LGWQ[dNMeD][NMeF]-NH2) | – | – | > 10000 nM | 0.084 nM | EC50 [3]: > 1000 nM
3 | CCCC[C@H](NC(=O)[C@H](Cc1c[nH]c2ccccc12)NC(=O)CNC(=O)[C@H](CC(C)C)NC(=O)[C@H](Cc1ccc(OS(=O)(=O)O)cc1)NC(=O)[C@H](CCC(=O)O)NC(=O)COCCOCCNC(=O)COCCOCCNC(=O)CC[C@H](NC(=O)CCCCCCCCCCCCCCCCC(=O)O)C(=O)O)C(=O)N(C)[C@H](CC(=O)O)C(=O)N[C@@H](Cc1ccccc1)C(N)=O [Example 52, 2-[2-[2-[[2-[2-[2-[[(4S)-4-Carboxy-4-(17-carboxyheptadecanoylamino)butanoyl]amino]ethoxy]ethoxy]acetyl]amino]ethoxy]ethoxy]acetyl-Glu-sTyr-Leu-Gly-Trp-Nle-DMeAsp-Phe-amide] ({C18 diacid-γGlu-AEEA-AEEA}-E[sY]LGW[Nle][dNMeD]F-NH2) | 480 nM | 0.049 nM | – | – | –

More lines, main results first:

Row | IC50 [1, 4] | IC50 [2, 5] | Structure (SMILES) | IC50 [1] | IC50 [2] | further results
4 | > 10000 nM | 0.072 nM | CCCC[C@H](NC(=O)[C@H](Cc1ccc(CS(=O)(=O)O)cc1)NC(=O)[C@@H](CC(=O)O)NC(=O)COCCOCCNC(=O)COCCOCCNC(=O)CC[C@H](NC(=O)CCCCCCCCCCCCCCCCC(=O)O)C(=O)O)C(=O)NCC(=O)N[C@@H](Cc1c[nH]c2ccccc12)C(=O)N[C@@H](CCCC)C(=O)N(C)[C@H](CC(=O)O)C(=O)N(C)[C@@H](Cc1ccccc1)C(N)=O [Example 25, 2-[2-[2-[[2-[2-[2-[[(4S)-4-Carboxy-4-(17-carboxyheptadecanoylamino)butanoyl]amino]ethoxy]ethoxy]acetyl]amino]ethoxy]ethoxy]acetyl-DAsp-Phe(4-sulfomethyl)-Nle-Gly-Trp-Nle-DMeAsp-MePhe-amide] ({C18 diacid-γGlu-AEEA-AEEA}-[dD][Phe(4-CH2SO3H)][Nle]GW[Nle][dNMeD][NMeF]-NH2) | – | – | EC50 ([3]; 1321-N1 cells stably expressing CCK-2R, IP1 accumulation, highest dose tested 1×10^6 pM, read-out: EC50 (CCK-2R)): > 1000 nM
5 | – | 0.1 nM | CCCC[C@H](NC(=O)[C@H](Cc1c[nH]c2ccccc12)NC(=O)CNC(=O)[C@H](CC(C)C)NC(=O)[C@H](Cc1ccc(OS(=O)(=O)O)cc1)NC(=O)[C@H](CC(=O)O)NC(=O)COCCOCCNC(=O)COCCOCCNC(=O)CC[C@H](NC(=O)CC[C@H](NC(=O)CCCCCCCCCCCCCCCCC(=O)O)C(=O)O)C(=O)O)C(=O)N(C)[C@H](CC(=O)O)C(=O)N(C)[C@@H](Cc1ccccc1)C(N)=O [Example 28, 2-[2-[2-[[2-[2-[2-[[(4S)-4-Carboxy-4-[[(4S)-4-carboxy-4-(17-carboxyheptadecanoylamino)butanoyl]amino]butanoyl]amino]ethoxy]ethoxy]acetyl]amino]ethoxy]ethoxy]acetyl-Asp-sTyr-Leu-Gly-Trp-Nle-DMeAsp-MePhe-amide] | – | – | –
6 | – | 0.14 nM | CCCC[C@H](NC(=O)[C@H](Cc1c[nH]c2ccccc12)NC(=O)CNC(=O)[C@H](CC(C)C)NC(=O)[C@H](Cc1ccc(OS(=O)(=O)O)cc1)NC(=O)[C@H](CC(=O)O)NC(=O)COCCOCCNC(=O)COCCOCCNC(=O)CC[C@H](NC(=O)CCCCCCCCCCCCCCCCC(=O)O)C(=O)O)C(=O)N(C)[C@H](CC(=O)O)C(=O)N[C@@H](Cc1ccc2ccccc2c1)C(N)=O [Example 50, 2-[2-[2-[[2-[2-[2-[[(4S)-4-Carboxy-4-(17-carboxyheptadecanoylamino)butanoyl]amino]ethoxy]ethoxy]acetyl]amino]ethoxy]ethoxy]acetyl-Asp-sTyr-Leu-Gly-Trp-Nle-DMeAsp-2Nal-amide] ({C18 diacid-γGlu-AEEA-AEEA}-D[sY]LGW[Nle][dNMeD][2Nal]-NH2) | – | – | –
